Assay results taken from patent US20250129113A1, “NEW GLYCOSIDE COMPOUND AND PREPARATION PROCESS THEREOF” (SunIn Biotech Co., Ltd., priority 2023, published 2025).

Assays:
Hs68 cells = assay: Cell proliferation assay (CCK-8), Hs68 cells; assay type: cell-based, human; conditions: 25 mM glucose, 24 hours, vs control group
Description: (§1) Human Foreskin Fibroblast, Hs68 cells and human keratinocytes, HaCaT cells were cultured in Dulbecco's Modified Eagle Medium (DMEM) added with glucose and 10% fetal calf serum, and then the cells were put in a humidified incubator with an air of 5% carbon dioxide and 95% oxygen. The medium was changed every two days. The subculture was performed, and then treated with 0.25% trypsin (TRYPSIN-EDTA) mixture. Finally, the cells were collected and diluted at a ratio of 1:5 for re-culture. The cells used in the efficacy test had passage numbers ranging from 12 to 40.
The Hs68 cells were cultured in DMEM culture medium for 24 hours. The cell growth and survival status were analyzed with the CCK-8 reagent kit (DOJINDO MOLECULAR TECHNOLOGIES, KUMAMOTO, JAPAN). 10 μL CCK-8 solution to each cell culture was added and the cell culture was incubated at 37° C. for one hour, and then the cells were measured by the spectrophotometer MICROPLATE READER (THERMO LABSYSTEMS MULTISKAN RC) at 450 nm absorption, and the experimental results were analyzed by a comparison with the control group.

HaCaT cells = assay: Cell proliferation assay (CCK-8), HaCaT cells; assay type: cell-based, human; conditions: 25 mM glucose, 48 hours, vs control group
Description: as §1
HaCaT cells at the number of 5×10^3 were cultured Culture in DMEM culture medium for 48 hours. The cell growth and survival status were analyzed with the CCK-8 reagent kit (DOJINDO MOLECULAR TECHNOLOGIES, KUMAMOTO, JAPAN). 10 μL CCK-8 solution was added to each cell culture and the cells were incubated at 37° C. for one hour, and then the cells were measured by the spectrophotometer MICROPLATE READER (THERMO LABSYSTEMS MULTISKAN RC) at 450 nm absorption, and the experimental results were analyzed by a comparison with the control group.

[1] = test system: TNF-α gene expression in THP1 cells differentiated into M1-type macrophages; assay: Real-time PCR inflammatory gene expression assay, TNF-α; assay type: cell-based, human; conditions: 16 μM; THP1 differentiation into M1-type macrophages (LPS, IFN-γ); 25 mM glucose
Description: (§2) Human acute monocytic leukemia, THP1 cells were cultured in Roswell Park Memorial Institute (RPMI) 1640 medium added with 10% fetal calf serum, and then the cells were put in a humidified incubator at 37° C., and with an air of 5% carbon dioxide and 95% oxygen.
(§3) THP1 cells were treated with 100 ng/ml of phorbol 12-myristate 13-acetate (PMA) for 24 hours to induce activation. The following day, the medium was replaced with RPMI 1640 (25 mM Glucose, 10% FBS) and incubated for another 24 hours. The cells were then differentiated into M1 phase macrophages by switching to RPMI 1640 medium containing LPS (10 pg/ml) and IFN-γ (20 ng/ml), and into M2 phase macrophages using RPMI 1640 medium containing IL-4 (20 ng/ml) and IL-13 (20 ng/ml). During the 48-hour differentiation process, the test drug Nusynside (16 μM) was added. After 24 hours of differentiation, mRNA from M1 and M2 phase macrophages was extracted using the PROTECH Kit, and reverse transcription of mRNA into cDNA was performed with the Protech MMLV Reverse Transcription Kit. Gene expression was subsequently observed. According to the POWERTRACK SYBR dye protocol, the cDNA was mixed, and gene expression was analyzed using the StepOnePlus Real-Time PCR Systems to examine inflammatory gene expression when THP1 cells were differentiated into M1 and M2 phase macrophages in the presence of Nusynside (16 μM).

[2] = test system: full-skin wound in BKS.Cg-Dock7m+/+ Leprdb/Jnarl male mice; assay: Diabetic mice wound healing study; assay type: in vivo; conditions: Nusynside 0.23 mg, Day 17 after continuous administration, compared to Blank group
Description: BKS.Cg-Dock7m+/+ Leprdb/Jnarl male mice, an established diabetes model, were obtained from the National Applied Research Laboratories, Taiwan. The experiment was conducted when the mice were 6 to 7 weeks old. A full-skin wound of the same size with a diameter of about 6 mm was made on the left and right sides of each mouse's back.
Total 14 mice were randomly divided into 4 groups based on body weight: (i) Nusynside test group (administrated with Nusynside 0.23 mg) (n=4); (ii) Positive Control group (administrated with cream containing Centella Asiatica and Plectranthus amboinicus extract) (n=4); (iii) Vehicle Control group (administrated with ointment base) (n=3); (vi) Blank group (n=3). The animals underwent bilateral incisions and were housed individually in separate cages after the incisions, in the IVC housing system of the general SPF breeding area. Daily external cage observations were conducted by the animal caretakers. On the day of the incision and during follow-up photography, the body weight of the animals, wound appearance, and wound area were measured and recorded, except that the wound had healed resulting in it disable to be measured, the measurements were taken twice a week.

[3] = test system: IL-6 gene expression in THP1 cells differentiated into M1-type macrophages; assay: Real-time PCR inflammatory gene expression assay, IL-6; assay type: cell-based, human; conditions: 16 μM; THP1 differentiation into M1-type macrophages (LPS, IFN-γ); 25 mM glucose
Description: as §2, §3

CC1OC(OC2C(O)C(OCCc3ccc(O)c(O)c3)OC(CO)C2OC(=O)CCc2ccc(O)c(O)c2)C(O)C(O)C1O (centres unmarked) [Nusynside]
promotion of cell proliferation of Hs68 cells (Hs68 cells; 16 μM): 9%
promotion of cell proliferation of Hs68 cells (Hs68 cells; 32 μM): 12%
promotion of cell proliferation of HaCaT cells (HaCaT cells; 3.2 μM): 12%
promotion of cell proliferation of HaCaT cells (HaCaT cells; 16 μM): 17%
promotion of cell proliferation of HaCaT cells (HaCaT cells; 32 μM): 14%
expression of TNF-α gene [1]: significantly downregulated
wound healing rate [2]: significantly increased the wound healing rate
expression of IL-6 gene [3]: significantly downregulated
